Test results taken from the supplement of paper PMC11061612.

Assays:
Experiment in all cases: combination Emax (second highest fraction inhibited in the dose matrix, 72 h); higher = more inhibition; extreme values may be limits of the assay
[1] = test system: MDA-MB-157 (Breast Carcinoma)
Procedure, shortened: (§1)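 After 24 hours at 37°C and 5% CO2 in 1536-well plates, cells in DMEM/F12 or RPMI plus 10% FBS received two-drug dose matrices for 72 hours. Viability came from CellTiter-Glo 2.0 luminescence and was scaled as inhibition, anchored at 0 by vehicle wells and at 1 by blank wells. Combination Emax is taken as the second-highest inhibition in the matrix, and Bliss excess as the observed combination effect less EA + EB − EA·EB, with EA and EB the single-agent effects.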

[2] = test system: SW756 (Cervical Carcinoma)
Procedure, shortened: as §1

[3] = test system: SW1990 (Pancreatic Carcinoma)
Procedure, shortened: as §1

[4] = test system: HCC2157 (Breast Carcinoma)
Procedure, shortened: as §1

[5] = test system: SNU-C5 (Colorectal Carcinoma)
Procedure, shortened: as §1

[6] = test system: HPAC (Pancreatic Carcinoma)
Procedure, shortened: as §1

[7] = test system: KARPAS-1106P (B-Cell Non-Hodgkin's Lymphoma)
Procedure, shortened: as §1

[8] = test system: KARPAS-620 (Plasma Cell Myeloma)
Procedure, shortened: as §1

[9] = test system: NCI-H1299 (Non-Small Cell Lung Carcinoma)
Procedure, shortened: as §1

[10] = test system: SW780 (Bladder Carcinoma)
Procedure, shortened: as §1

SK-N-FI (Neuroblastoma) = test system: SK-N-FI (Neuroblastoma)
Procedure, shortened: as §1

DSH1 (Bladder Carcinoma) = test system: DSH1 (Bladder Carcinoma)
Procedure, shortened: as §1

[11] = test system: IHH-4 (Thyroid Gland Carcinoma)
Procedure, shortened: as §1

IGR-1 (Melanoma) = test system: IGR-1 (Melanoma)
Procedure, shortened: as §1

SN12C (Kidney Carcinoma) = test system: SN12C (Kidney Carcinoma)
Procedure, shortened: as §1

[12] = test system: DOV13 (Ovarian Carcinoma)
Procedure, shortened: as §1

[13] = test system: KM-H2 (Hodgkin's Lymphoma)
Procedure, shortened: as §1

[14] = test system: MDA-MB-231 (Breast Carcinoma)
Procedure, shortened: as §1

[15] = test system: CFPAC-1 (Pancreatic Carcinoma)
Procedure, shortened: as §1

CAL-78 (Chondrosarcoma) = test system: CAL-78 (Chondrosarcoma)
Procedure, shortened: as §1

Row | combination Emax [13] | SMILES | combination Emax [1] | combination Emax [2] | combination Emax [3] | combination Emax [4] | combination Emax [5] | combination Emax [6] | combination Emax [7] | combination Emax [8] | combination Emax [9] | combination Emax [10] | combination Emax (SK-N-FI (Neuroblastoma)) | combination Emax (DSH1 (Bladder Carcinoma)) | combination Emax [11] | combination Emax (IGR-1 (Melanoma)) | combination Emax (SN12C (Kidney Carcinoma)) | combination Emax [12] | combination Emax [14] | combination Emax [15] | combination Emax (CAL-78 (Chondrosarcoma))
1 | 0.191 | Cc1c2c(nn1C)CSCc1cc(n(C)n1)CSc1cc(c3ccccc3c1)OCCCc1c(C(=O)O)n(C)c3c-2c(Cl)ccc13 [AZD5991] + Cn1cnc2c(F)c(Nc3ccc(Br)cc3Cl)c(C(=O)NOCCO)cc21 [Selumetinib] (first compound max 1 µM, 7x7, partner max 3 µM) | 0.641 | 0.336 | 0.41 | 0.982 | 0.456 | 0.673 | 0.979 | 1 | 0.3 | 0.333 | 0.565 | 0.489 | 0.385 | 0.622 | 0.246 | 0.252 | 0.4 | 0.322 | 0.717
2 | 0.933 | Cc1cc2ncnn2cc1Nc1ncc2c(n1)n(C1CCOCC1)c(=O)n2C [AZD7648] + C=CCn1c(=O)c2cnc(Nc3ccc(N4CCN(C)CC4)cc3)nc2n1-c1cccc(C(C)(C)O)n1 [AZD1775] (first compound max 10 µM, partner max 1 µM) | 0.649 | 0.442 | 0.467 | 0.899 | 0.609 | 0.748 | 0.901 | 0.597 | 0.72 | 0.233 | 0.591 | 0.463 | 0.802 | 0.25 | 0.313 | 0.839 | 0.434 | 0.444 | 0.458
3 | 0.209 | Cc1cc2ncnn2cc1Nc1ncc2c(n1)n(C1CCOCC1)c(=O)n2C [AZD7648] + CCN(CCO)CCCOc1ccc2c(Nc3cc(CC(=O)Nc4cccc(F)c4)[nH]n3)ncnc2c1 [AZD2811] (first compound max 10 µM, 7x7, partner max 1 µM) | 0.234 | 0.108 | 0.201 | 0.783 | 0.295 | 0.155 | 0.526 | 0.554 | 0.37 | 0.29 | 0.274 | 0.362 | 0.454 | 0.0874 | 0.262 | 0.426 | 0.477 | 0.281 | 0.335
4 | 0.158 | Cc1cc2ncnn2cc1Nc1ncc2c(n1)n(C1CCOCC1)c(=O)n2C [AZD7648] + CN(C)CCCOc1ccc(-c2ccc3ncc4c(c3c2)n(C2CCOCC2)c(=O)n4C)cn1 [AZD0156] (first compound max 10 µM, 7x7, partner max 1 µM) | 0.209 | 0.205 | 0.212 | 0.478 | 0.337 | 0.169 | 0.423 | 0.468 | 0.352 | 0.18 | 0.353 | 0.286 | 0.329 | 0.0864 | 0.262 | 0.325 | 0.42 | 0.235 | 0.173
5 | 0.774 | Cc1cc2ncnn2cc1Nc1ncc2c(n1)n(C1CCOCC1)c(=O)n2C [AZD7648] + C[C@@H]1COCCN1C2=NC(=NC(=C2)C3(CC3)[S@](=N)(=O)C)C4=C5C=CNC5=NC=C4 [AZD6738] (first compound max 10 µM, 7x7, partner max 10 µM) | 0.881 | 0.401 | 0.471 | 0.842 | 0.751 | 0.672 | 0.756 | 0.539 | 0.644 | 0.303 | 0.71 | 0.736 | 0.756 | 0.348 | 0.313 | 0.838 | 0.605 | 0.356 | 0.469
6 | 0.513 | NC1(C(=O)N[C@@H](CCO)c2ccc(Cl)cc2)CCN(c2ncnc3[nH]ccc23)CC1 [Capivasertib] + CC(=O)c1c(C)c2cnc(Nc3ccc(N4CCNCC4)cn3)nc2n(C2CCCC2)c1=O [Palbociclib] (first compound max 10 µM, 7x7, partner max 10 µM) | 0.24 | 0.389 | 0.214 | 1 | 0.567 | 0.589 | 0.761 | 0.781 | 0.465 | 0.248 | 0.413 | 0.62 | 0.618 | 0.831 | 0.17 | 0.588 | 0.577 | 0.519 | 0.542
7 | 0.222 | NC1(C(=O)N[C@@H](CCO)c2ccc(Cl)cc2)CCN(c2ncnc3[nH]ccc23)CC1 [Capivasertib] + CC(C)n1c(=O)n(C)c2cnc3cc(F)c(-c4ccc(OCCCN5CCCCC5)nc4)cc3c21 [AZD1390] (first compound max 10 µM, 7x7, partner max 0.3 µM) | 0.25 | 0.31 | 0.143 | 0.999 | 0.416 | 0.252 | 0.392 | 0.775 | 0.254 | 0.176 | 0.361 | 0.615 | 0.203 | 0.334 | 0.205 | 0.462 | 0.334 | 0.235 | 0.414
8 | 0.362 | NC1(C(=O)N[C@@H](CCO)c2ccc(Cl)cc2)CCN(c2ncnc3[nH]ccc23)CC1 [Capivasertib] + CCN(CCO)CCCOc1ccc2c(Nc3cc(CC(=O)Nc4cccc(F)c4)[nH]n3)ncnc2c1 [AZD2811] (first compound max 10 µM, 7x7, partner max 1 µM) | 0.276 | 0.287 | 0.136 | 1 | 0.501 | 0.395 | 0.502 | 0.798 | 0.364 | 0.28 | 0.396 | 0.668 | 0.618 | 0.465 | 0.27 | 0.544 | 0.349 | 0.319 | 0.512
9 | 0.546 | NC1(C(=O)N[C@@H](CCO)c2ccc(Cl)cc2)CCN(c2ncnc3[nH]ccc23)CC1 [Capivasertib] + COc1nnc2ccc(N3CCC(c4ccc(OCCN5CCN(C)C(=O)[C@H]5C)cc4)CC3)nn12 [AZD5153] (first compound max 10 µM, 7x7, partner max 1 µM) | 0.389 | 0.413 | 0.208 | 1 | 0.665 | 0.68 | 0.979 | 0.897 | 0.669 | 0.226 | 0.579 | 0.941 | 0.636 | 0.406 | 0.152 | 0.535 | 0.703 | 0.531 | 0.489
10 | 0.879 | NC1(C(=O)N[C@@H](CCO)c2ccc(Cl)cc2)CCN(c2ncnc3[nH]ccc23)CC1 [Capivasertib] + C[C@@H]1COCCN1C2=NC(=NC(=C2)C3(CC3)[S@](=N)(=O)C)C4=C5C=CNC5=NC=C4 [AZD6738] (first compound max 10 µM, 7x7, partner max 10 µM) | 0.884 | 0.428 | 0.498 | 1 | 0.811 | 0.545 | 0.694 | 0.757 | 0.602 | 0.284 | 0.705 | 0.848 | 0.859 | 0.713 | 0.261 | 0.925 | 0.74 | 0.567 | 0.663
11 | 0.292 | NC1(C(=O)N[C@@H](CCO)c2ccc(Cl)cc2)CCN(c2ncnc3[nH]ccc23)CC1 [Capivasertib] + Cn1cnc2c(F)c(Nc3ccc(Br)cc3Cl)c(C(=O)NOCCO)cc21 [Selumetinib] (first compound max 10 µM, 7x7, partner max 10 µM) | 0.292 | 0.448 | 0.368 | 1 | 0.656 | 0.783 | 0.586 | 0.96 | 0.615 | 0.421 | 0.614 | 0.954 | 0.607 | 0.915 | 0.352 | 0.371 | 0.751 | 0.491 | 0.452
12 | 0.234 | Cc1nc(Nc2ncc(C(=O)Nc3c(C)cccc3Cl)s2)cc(N2CCN(CCO)CC2)n1 [Dasatinib] + CC(=O)Nc1cccc(-n2c(=O)n(C3CC3)c(=O)c3c(Nc4ccc(I)cc4F)n(C)c(=O)c(C)c32)c1 [Trametinib] (first compound max 2 µM, 7x7, partner max 1 µM) | 0.234 | 0.691 | 0.399 | 0.423 | 0.571 | 0.893 | 0.741 | 0.645 | 0.795 | 0.625 | 0.757 | 0.505 | 0.896 | 0.351 | 0.455 | 0.814 | 0.832 | 0.847 | 0.474

Row | SMILES | combination Emax [13] | combination Emax [1] | combination Emax [2] | combination Emax [3] | combination Emax [4] | combination Emax [5] | combination Emax [6] | combination Emax [7] | combination Emax [8] | combination Emax [9] | combination Emax [10] | combination Emax (SK-N-FI (Neuroblastoma)) | combination Emax (DSH1 (Bladder Carcinoma)) | combination Emax [11] | combination Emax (IGR-1 (Melanoma)) | combination Emax (SN12C (Kidney Carcinoma)) | combination Emax [12] | combination Emax [14] | combination Emax [15] | combination Emax (CAL-78 (Chondrosarcoma))
13 | Cc1cc2ncnn2cc1Nc1ncc2c(n1)n(C1CCOCC1)c(=O)n2C [AZD7648] + O=C(c1cc(Cc2n[nH]c(=O)c3ccccc23)ccc1F)N1CCN(C(=O)C2CC2)CC1 [Olaparib] (first compound max 10 µM, 7x7, partner max 10 µM) | 0.349 | 0.0869 | 0.157 | 0.11 | 0.413 | 0.24 | 0.0971 | 0.41 | 0.394 | 0.249 | 0.165 | 0.213 | 0.272 | 0.219 | 0.164 | 0.138 | 0.386 | 0.266 | 0.197 | 0.252
